Measurements as given in ChEMBL document CHEMBL1201862, “PubChem BioAssay data set” (2004).
Active and inactive are the calls of the source.

How the values were obtained:
Mucolipin-3 [1] = biological target: T1, Mucolipin-3 (Homo sapiens, UniProt Q8TDD5); assay: TRPML3 agonist potency, dose response, cell-based, calcium fluorescence (AID 2510); assay type: functional
T1 sequence (Q8TDD5 whole entry): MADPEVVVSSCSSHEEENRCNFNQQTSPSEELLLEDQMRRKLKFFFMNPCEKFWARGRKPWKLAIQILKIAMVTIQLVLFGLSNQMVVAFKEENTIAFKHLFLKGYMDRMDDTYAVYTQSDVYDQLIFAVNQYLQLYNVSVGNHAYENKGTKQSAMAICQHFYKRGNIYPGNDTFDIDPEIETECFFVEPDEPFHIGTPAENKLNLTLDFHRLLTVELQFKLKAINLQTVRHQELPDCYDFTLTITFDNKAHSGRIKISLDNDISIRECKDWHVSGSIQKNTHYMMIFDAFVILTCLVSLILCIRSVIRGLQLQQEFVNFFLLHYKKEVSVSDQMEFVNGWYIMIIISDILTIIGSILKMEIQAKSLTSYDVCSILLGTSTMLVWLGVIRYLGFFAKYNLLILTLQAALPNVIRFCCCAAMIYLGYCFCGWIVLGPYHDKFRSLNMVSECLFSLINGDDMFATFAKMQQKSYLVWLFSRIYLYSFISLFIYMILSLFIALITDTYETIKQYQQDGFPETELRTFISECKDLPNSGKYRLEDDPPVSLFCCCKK

Mucolipin-3 [2] = biological target: T1, Mucolipin-3; assay: Dose response cell-based high-throughput screening assay for agonists of the transient receptor potential channel ML3 (TRPML3). [Related pubchem assays: 1526, 1424, 1448 ]; assay type: functional
Ion channel NompC [3] = biological target: T2, Ion channel NompC (Danio rerio, UniProt Q7T1G6); assay: Late stage counterscreen for the probe development effort to identify selective agonists of the Transient Receptor Potential Channels 3 (TRPML3): fluorescence-based cell-based dose response assay for TRPN1 agonists.; assay type: functional
T2 sequence (Q7T1G6 whole entry): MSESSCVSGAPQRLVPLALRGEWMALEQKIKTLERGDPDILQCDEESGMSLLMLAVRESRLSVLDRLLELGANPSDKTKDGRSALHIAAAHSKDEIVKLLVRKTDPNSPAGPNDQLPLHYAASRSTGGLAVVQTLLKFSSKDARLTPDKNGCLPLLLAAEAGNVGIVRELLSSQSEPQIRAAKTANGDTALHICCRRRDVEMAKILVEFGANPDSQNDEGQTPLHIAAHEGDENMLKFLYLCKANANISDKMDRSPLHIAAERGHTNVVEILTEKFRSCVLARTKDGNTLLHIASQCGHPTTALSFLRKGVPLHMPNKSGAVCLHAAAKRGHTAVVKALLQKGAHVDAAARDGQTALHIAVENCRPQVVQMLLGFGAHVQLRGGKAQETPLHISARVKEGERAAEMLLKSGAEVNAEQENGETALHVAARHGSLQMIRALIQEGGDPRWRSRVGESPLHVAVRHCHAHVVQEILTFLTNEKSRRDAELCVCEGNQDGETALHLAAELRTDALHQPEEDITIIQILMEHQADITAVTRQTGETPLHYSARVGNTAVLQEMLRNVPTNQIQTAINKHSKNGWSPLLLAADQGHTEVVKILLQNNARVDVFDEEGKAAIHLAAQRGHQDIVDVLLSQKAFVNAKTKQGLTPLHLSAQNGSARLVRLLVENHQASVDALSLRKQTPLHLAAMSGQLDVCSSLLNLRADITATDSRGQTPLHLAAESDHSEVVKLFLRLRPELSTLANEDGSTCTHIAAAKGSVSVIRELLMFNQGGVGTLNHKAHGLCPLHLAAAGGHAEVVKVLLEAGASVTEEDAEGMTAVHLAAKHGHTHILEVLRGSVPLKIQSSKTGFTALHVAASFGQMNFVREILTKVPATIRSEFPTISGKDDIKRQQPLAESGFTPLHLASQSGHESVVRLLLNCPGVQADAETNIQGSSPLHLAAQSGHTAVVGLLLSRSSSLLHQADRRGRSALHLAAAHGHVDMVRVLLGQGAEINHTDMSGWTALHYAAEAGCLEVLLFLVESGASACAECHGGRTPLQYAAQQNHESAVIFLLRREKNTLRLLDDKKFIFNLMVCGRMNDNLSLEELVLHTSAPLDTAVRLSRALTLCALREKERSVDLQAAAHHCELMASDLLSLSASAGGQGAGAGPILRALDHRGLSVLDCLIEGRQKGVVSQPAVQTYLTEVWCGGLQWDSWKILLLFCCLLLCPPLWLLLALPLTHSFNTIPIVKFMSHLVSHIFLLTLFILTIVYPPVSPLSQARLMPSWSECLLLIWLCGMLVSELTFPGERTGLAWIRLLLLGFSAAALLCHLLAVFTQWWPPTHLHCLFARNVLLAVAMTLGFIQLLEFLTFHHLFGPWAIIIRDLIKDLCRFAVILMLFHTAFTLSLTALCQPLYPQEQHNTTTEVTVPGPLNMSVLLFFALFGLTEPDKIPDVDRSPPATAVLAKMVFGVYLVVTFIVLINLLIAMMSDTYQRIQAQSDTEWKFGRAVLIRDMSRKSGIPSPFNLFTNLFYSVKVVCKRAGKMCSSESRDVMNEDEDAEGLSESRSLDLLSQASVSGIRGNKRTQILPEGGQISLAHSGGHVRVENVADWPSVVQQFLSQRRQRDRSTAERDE

Ion channel NompC [4] = biological target: T2, Ion channel NompC; assay: Fluorescence counterscreen assay for TRPML3 agonists: dose response cell-based high-throughput screening assay to identify agonists of the transient receptor potential channel N1 (TRPN1). [Related pubchem assays: 1526, 1424, 1448 ]; assay type: functional
Leucine aminopeptidase = biological target: T3, Leucine aminopeptidase (Plasmodium falciparum 3D7, UniProt Q8IL11); assay: P. falciparum M17LAP inhibitors, primary screen, biochemical, fluorogenic H-Leu-NHMec substrate, 1536-well (AID 1619); assay type: functional
T3 sequence (Q8IL11 whole entry): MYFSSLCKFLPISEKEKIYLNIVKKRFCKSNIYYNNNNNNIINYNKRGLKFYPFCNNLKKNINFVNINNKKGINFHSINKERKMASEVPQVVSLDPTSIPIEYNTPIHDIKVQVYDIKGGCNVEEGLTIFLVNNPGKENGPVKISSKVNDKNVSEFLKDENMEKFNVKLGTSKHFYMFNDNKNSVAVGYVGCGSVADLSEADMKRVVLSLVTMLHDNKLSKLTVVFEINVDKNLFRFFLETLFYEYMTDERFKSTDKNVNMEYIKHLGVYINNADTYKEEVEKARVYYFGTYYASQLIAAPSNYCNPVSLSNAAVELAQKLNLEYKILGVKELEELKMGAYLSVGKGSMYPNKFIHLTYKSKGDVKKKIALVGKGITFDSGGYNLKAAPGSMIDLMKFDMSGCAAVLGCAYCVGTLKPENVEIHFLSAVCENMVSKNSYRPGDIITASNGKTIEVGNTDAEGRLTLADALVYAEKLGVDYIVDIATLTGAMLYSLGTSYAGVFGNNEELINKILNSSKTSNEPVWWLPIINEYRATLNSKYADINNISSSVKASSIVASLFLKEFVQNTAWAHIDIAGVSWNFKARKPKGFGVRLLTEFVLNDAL

[5] = biological target: T4, RNA-binding protein pos-1 (Caenorhabditis elegans, UniProt G5EF15); assay: inhibitors of POS-1/mex-3 RNA binding, dose response, biochemical, fluorescence polarization (AID 1964);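 also: purified POS-1 fused to maltose binding protein made in E. coli; potency of compounds blocking POS-1 binding to fluorescent RNA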
T4 sequence (G5EF15 whole entry): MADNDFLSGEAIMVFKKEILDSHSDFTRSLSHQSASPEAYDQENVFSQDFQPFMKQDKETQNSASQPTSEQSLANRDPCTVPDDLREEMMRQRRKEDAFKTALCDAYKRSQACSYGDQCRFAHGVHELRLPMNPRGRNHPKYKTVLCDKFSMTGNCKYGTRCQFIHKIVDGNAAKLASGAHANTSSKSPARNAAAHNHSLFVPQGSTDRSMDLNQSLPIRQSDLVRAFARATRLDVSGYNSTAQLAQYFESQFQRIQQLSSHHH

[6] = biological target: T5, Zinc finger protein mex-5 (Caenorhabditis elegans, UniProt Q9XUB2); assay: MEX-5/TCR-2 RNA interaction inhibitors, dose response, biochemical, C. elegans, fluorescence polarization (AID 1960)
T5 sequence (Q9XUB2 whole entry): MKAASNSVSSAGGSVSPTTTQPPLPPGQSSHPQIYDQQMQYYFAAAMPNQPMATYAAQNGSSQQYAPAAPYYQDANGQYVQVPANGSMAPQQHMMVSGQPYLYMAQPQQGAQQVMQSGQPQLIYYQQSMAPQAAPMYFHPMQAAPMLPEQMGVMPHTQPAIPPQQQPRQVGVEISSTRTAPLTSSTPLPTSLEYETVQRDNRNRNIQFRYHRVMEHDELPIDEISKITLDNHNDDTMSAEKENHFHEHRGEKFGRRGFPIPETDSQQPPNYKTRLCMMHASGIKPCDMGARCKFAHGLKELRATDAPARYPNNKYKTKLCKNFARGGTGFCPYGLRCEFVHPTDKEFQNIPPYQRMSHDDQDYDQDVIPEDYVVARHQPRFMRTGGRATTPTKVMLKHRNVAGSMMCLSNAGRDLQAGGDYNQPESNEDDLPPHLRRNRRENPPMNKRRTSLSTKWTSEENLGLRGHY

[7] = Escherichia coli growth inhibition, dose response, counter-screen for MEX-5/POS-1 RNA-binding inhibitor project, luminescence, NEB5alpha (AID 1959); assay type: functional
Nonstructural protein 1 = Nonstructural protein 1 (Influenza A virus, UniProt Q194T2); assay type: functional, Influenza A virus (A/California/07/2009(H1N1))
Chain of Nonstructural protein 1 (Q194T2 whole entry): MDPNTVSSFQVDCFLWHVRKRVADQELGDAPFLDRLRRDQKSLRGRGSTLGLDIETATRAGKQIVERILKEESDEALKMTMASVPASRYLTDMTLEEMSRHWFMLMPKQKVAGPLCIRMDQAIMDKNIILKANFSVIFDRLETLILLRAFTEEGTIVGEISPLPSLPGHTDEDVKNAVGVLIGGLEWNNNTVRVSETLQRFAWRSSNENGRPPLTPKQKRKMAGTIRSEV

[8] = HeLa cell cytotoxicity, dose response, cytotoxicity control for MgcRacGAP inhibitor project (AID 624300); assay type: functional
[9] = biological target: T6, Rac GTPase-activating protein 1 (Homo sapiens, UniProt Q9H0H5); assay: MgcRacGAP GTPase-activating activity inhibitors, confirmation, biochemical, ADP Hunter fluorescence, primary and confirmatory (AID 624330); assay type: functional
T6 sequence (Q9H0H5 whole entry): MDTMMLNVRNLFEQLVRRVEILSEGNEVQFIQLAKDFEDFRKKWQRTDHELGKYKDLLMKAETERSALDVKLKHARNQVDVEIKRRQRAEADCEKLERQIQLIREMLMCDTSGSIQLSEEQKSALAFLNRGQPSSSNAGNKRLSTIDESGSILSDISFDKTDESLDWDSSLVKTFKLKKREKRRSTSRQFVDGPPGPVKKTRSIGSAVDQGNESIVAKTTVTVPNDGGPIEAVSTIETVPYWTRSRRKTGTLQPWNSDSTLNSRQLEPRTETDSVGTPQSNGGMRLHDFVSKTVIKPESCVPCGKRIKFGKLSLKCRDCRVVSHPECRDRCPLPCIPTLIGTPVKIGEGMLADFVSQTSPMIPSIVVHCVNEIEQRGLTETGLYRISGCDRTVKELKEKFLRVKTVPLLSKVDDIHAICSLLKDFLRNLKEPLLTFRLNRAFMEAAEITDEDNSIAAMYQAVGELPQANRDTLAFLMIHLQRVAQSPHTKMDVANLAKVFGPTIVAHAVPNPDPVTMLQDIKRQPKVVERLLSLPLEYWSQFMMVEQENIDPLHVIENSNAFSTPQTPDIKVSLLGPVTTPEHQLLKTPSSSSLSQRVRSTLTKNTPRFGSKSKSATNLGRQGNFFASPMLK

[10] = human group III sPLA2 inhibitors, dose response, biochemical, QFRET, IC50 (AID 743457);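 also: green fluorescence rise as the enzyme cleaves BODIPY PC-A2 in liposomes; potency for inhibition of the enzyme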
[11] = test system: Streptococcus sp. 'group A'; assay: growth inhibition of control SK(-) GAS strain, dose response, counter-screen for streptokinase expression inhibitor project, luminescence, kanamycin, BacTiterGlo, confirmation (AID 1900); assay type: functional, organism-based
[12] = biological target: Voltage-gated inwardly rectifying potassium channel KCNH2 (Homo sapiens, UniProt Q12809); assay: hERG protection from proarrhythmic block, potency, dose response, cell-based, thallium flux (AID 2121); assay type: ADME
Chain of Voltage-gated inwardly rectifying potassium channel KCNH2 (Q12809 whole entry): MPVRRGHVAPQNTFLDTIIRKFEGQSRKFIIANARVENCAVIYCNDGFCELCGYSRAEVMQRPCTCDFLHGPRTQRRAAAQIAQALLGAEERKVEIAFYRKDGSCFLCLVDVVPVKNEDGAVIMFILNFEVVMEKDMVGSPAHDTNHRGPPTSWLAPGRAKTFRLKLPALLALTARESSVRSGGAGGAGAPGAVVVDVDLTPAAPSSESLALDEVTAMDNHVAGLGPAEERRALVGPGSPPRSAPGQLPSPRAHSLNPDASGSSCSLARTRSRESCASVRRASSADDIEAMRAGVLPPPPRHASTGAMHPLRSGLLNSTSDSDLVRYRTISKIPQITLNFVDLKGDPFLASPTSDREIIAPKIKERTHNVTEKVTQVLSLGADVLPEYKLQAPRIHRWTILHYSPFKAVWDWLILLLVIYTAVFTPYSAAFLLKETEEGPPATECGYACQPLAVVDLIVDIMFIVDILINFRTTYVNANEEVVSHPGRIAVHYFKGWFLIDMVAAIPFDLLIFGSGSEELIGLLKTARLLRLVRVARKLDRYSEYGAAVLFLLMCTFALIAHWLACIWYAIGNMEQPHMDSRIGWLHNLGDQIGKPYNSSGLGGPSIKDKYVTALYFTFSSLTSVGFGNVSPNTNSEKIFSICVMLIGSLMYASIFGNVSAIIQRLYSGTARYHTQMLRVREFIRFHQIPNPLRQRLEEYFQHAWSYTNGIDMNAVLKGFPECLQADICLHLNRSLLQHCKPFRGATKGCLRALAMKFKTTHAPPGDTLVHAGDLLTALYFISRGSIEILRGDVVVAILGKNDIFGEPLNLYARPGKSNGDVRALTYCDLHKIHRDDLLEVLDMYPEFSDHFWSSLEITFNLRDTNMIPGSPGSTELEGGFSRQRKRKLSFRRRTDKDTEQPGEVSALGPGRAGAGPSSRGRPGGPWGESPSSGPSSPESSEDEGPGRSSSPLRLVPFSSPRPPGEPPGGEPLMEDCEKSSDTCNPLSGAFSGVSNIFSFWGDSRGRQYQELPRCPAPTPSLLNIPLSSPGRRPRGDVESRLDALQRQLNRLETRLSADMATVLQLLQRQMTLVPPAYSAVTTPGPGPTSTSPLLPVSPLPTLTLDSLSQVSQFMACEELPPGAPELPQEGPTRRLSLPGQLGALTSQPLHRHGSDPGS

Streptococcus = assay: Group A Streptococcus viability loss, dose response, counter-screen for streptokinase expression inhibitor project, luminescence, BacTiterGlo (AID 1915); assay type: functional, organism-based;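 also: potency for reduction of bacterial viability or growth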
Bcl-2-related protein A1 [13] = biological target: T7, Bcl-2-related protein A1 (Mus musculus, UniProt Q07440); assay: Bfl-1 inhibitors blocking BH3 peptide binding, confirmation, biochemical, TR-FRET, mouse Bfl-1 (AID 621);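 also: TR-FRET binding of GST-Bfl-1 to FITC-labelled Bid peptide via terbium antibody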
T7 sequence (Q07440 whole entry): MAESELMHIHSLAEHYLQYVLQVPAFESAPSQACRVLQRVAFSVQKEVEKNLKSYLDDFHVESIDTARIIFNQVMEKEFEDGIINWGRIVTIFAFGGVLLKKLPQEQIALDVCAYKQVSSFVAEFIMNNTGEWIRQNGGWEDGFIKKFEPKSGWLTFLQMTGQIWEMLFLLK

Bcl-2-related protein A1 [14] = biological target: T7, Bcl-2-related protein A1; assay: Bfl-1 binding inhibitors, SAR follow-up, biochemical, fluorescence polarization (AID 1070)
Protein skinhead-1 = biological target: T8, Protein skinhead-1 (Caenorhabditis elegans, UniProt P34707); assay type: functional
T8 sequence (P34707 whole entry): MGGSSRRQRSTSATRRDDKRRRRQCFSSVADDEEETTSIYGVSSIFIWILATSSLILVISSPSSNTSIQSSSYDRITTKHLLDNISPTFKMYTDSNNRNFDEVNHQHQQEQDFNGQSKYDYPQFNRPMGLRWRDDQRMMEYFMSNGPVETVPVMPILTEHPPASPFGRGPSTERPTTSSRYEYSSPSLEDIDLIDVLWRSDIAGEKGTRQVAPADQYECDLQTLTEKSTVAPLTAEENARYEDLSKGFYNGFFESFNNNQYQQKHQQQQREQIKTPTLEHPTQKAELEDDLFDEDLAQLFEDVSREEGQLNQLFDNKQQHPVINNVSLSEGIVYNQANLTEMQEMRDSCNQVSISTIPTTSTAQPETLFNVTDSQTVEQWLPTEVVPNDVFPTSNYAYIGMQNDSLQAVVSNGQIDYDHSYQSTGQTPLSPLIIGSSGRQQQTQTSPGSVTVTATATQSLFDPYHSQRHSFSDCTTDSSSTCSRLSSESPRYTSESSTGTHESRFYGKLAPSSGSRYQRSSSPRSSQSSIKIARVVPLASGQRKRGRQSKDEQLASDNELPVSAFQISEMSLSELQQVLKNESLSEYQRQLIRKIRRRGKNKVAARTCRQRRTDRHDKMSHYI

[15] = Luminescent dose response cell-based high throughput screening assay for inhibitors of the Janus kinase 2 mutant JAK2V617F. [Related pubchem assays: 1446 (Primary screen.), 1521 (Confirmation assay.), 1486 (Counter screen.)]; assay type: functional
[16] = THP-1 cell cytotoxicity, dose response, cytotoxicity control for non-replicating M. tuberculosis project (AID 489025); assay type: functional
[17] = HepG2 cell cytotoxicity, dose response, cytotoxicity control for non-replicating M. tuberculosis project (AID 489018); assay type: functional; details: Mycobacterium tuberculosis
[18] = Vero E6 cell cytotoxicity, dose response, cytotoxicity control for non-replicating M. tuberculosis project, secondary assay (AID 492998); assay type: functional, VeroE6; details: Vero C1008
cells = assay type: functional
Paired box protein Pax-8 = Paired box protein Pax-8 (Homo sapiens, UniProt Q06710); assay: inhibitors of PAX8-driven TPO luciferase reporter, dose response, RMG-I cells, cherry-pick (AID 687027); assay type: functional, cell-based;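 also: luciferase reporter driven by Pax8 target thyroperoxidase promoter measured by SteadyGlo luminescence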
Chain of Paired box protein Pax-8 (Q06710 whole entry): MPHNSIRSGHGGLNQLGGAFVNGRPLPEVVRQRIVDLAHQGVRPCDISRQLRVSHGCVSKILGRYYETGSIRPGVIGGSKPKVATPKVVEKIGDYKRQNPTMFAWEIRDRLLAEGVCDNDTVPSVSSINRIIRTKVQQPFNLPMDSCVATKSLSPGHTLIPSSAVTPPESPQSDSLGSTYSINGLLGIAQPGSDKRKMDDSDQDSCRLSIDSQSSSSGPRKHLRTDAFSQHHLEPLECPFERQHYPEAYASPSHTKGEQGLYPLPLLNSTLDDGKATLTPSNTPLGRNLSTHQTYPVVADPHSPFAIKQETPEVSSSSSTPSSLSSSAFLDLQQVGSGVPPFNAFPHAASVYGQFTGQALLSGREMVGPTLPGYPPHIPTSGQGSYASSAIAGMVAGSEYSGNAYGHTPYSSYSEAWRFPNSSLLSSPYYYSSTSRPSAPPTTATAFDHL

**Q.** Which results are given for `CCOc1ccc(S(=O)(=O)N2CCCCCC2)c2ccccc12`?
**A.** EC50 (Mucolipin-3 [1]): 950 nM (active); EC50 (Mucolipin-3 [2]): 1.03 µM (active); EC50 (Ion channel NompC [3]): > 29.9 µM (not active); EC50 (Ion channel NompC [4]): > 29.9 µM (not active)

**Q.** Which results are given for `CC[n+]1c(/C=C/c2ccc(N(C)C)cc2)ccc2ccccc21`?
**A.** IC50 (Leucine aminopeptidase): 110 µM (active); EC50 [5]: > 300 µM (not active); EC50 [6]: > 300 µM (not active); EC50 [7]: 37.8 µM (active); IC50 (Nonstructural protein 1): 18.9 µM (active); CC50 [8]: 39.7 µM (active); IC50 [9]: 46.6 µM (active); IC50 [10]: 34 µM (inactive)

**Q.** Which results are given for `CCOc1ccc2nc(N3C(=O)/C(=C/c4ccc(Cl)cc4)NC3=S)sc2c1`?
**A.** EC50 [11]: 1.8 µM (active); EC50 [12]: 1.24 µM (active); EC50 (Streptococcus): 855 nM (active)

**Q.** For `Fc1ccc(-n2nnc(-c3cccnc3)n2)cc1`, which IC50 (Bcl-2-related protein A1 [13]) is on record?
**A.** > 100 µM (not active)

**Q.** What about the IC50 (Bcl-2-related protein A1 [14]) of the same molecule?
**A.** > 100 µM (not active)

**Q.** What about the IC50 (Protein skinhead-1) of the same molecule?
**A.** 17.4 µM (active)

**Q.** Which IC50 [15] does the source give for `CCOc1ccc(C(=O)C(CN2CCOCC2)c2ccccc2)cc1` (centres undefined) here?
**A.** 730 nM (active)

**Q.** And the CC50 [16]?
**A.** 5.48 µM (active)

**Q.** And the CC50 [17]?
**A.** 16.1 µM (active)

**Q.** What about the CC50 [18] of the same molecule?
**A.** 8.04 µM (active)

**Q.** What about the IC50 (cells) of the same molecule?
**A.** 10.3 µM (active)

**Q.** And the AC50 (Paired box protein Pax-8)?
**A.** 1.96 µM (active)
